Experimental data published in PMC10056348, “Photocaged Histone Deacetylase Inhibitors as Prodrugs in Targeted Cancer Therapy” (Pharmaceuticals, 2023).

Key:
human recombinant HDAC6 = molecular target: T1, human recombinant HDAC6 (Homo sapiens, UniProt Q9UBN7); test: Fluorogenic HDAC enzyme inhibition assay (ZMAL substrate), HDAC6; assay type: biochemical
T1 construct: purchased BPS Bioscience Inc. 50006
T1 sequence (Q9UBN7 1-1215): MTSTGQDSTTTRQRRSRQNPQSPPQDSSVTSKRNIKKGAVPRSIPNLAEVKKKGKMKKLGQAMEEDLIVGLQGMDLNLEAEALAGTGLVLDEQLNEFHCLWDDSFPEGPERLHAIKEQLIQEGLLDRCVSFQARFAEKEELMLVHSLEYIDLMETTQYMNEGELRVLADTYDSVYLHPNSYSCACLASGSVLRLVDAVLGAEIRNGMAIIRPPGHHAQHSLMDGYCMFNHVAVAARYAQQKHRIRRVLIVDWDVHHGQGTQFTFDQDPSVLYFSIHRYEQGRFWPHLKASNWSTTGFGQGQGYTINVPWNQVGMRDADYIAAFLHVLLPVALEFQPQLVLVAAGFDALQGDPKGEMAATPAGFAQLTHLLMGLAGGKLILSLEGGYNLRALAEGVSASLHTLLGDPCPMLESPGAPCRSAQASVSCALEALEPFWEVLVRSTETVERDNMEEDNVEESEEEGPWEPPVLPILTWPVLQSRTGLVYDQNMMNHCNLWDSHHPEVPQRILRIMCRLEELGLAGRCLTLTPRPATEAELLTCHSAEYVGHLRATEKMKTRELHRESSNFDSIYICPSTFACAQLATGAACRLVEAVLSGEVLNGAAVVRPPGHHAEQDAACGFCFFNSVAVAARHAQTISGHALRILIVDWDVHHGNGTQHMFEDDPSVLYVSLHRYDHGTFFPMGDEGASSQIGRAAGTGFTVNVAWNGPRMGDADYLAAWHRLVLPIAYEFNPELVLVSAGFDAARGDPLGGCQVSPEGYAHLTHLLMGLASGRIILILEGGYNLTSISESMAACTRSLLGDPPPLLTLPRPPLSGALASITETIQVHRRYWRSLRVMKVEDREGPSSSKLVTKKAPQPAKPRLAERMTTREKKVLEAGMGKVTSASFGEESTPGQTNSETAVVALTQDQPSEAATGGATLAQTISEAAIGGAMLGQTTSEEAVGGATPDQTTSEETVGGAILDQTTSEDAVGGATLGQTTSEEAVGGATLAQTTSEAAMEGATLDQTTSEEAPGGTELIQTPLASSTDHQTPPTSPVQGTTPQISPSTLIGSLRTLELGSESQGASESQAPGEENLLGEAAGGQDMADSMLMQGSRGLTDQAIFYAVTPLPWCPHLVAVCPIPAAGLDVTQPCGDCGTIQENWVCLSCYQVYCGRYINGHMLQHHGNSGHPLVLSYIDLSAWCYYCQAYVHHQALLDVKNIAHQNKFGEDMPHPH
Method: First, predilutions (100-fold final assay concentration) of test compounds or reference inhibitors were prepared. To this end, 3-fold serial dilutions of the respective DMSO stock solutions were prepared in DMSO using clear V-bottom 96-well microplates (Greiner Bio-One, Greiner AG, Kremsmünster, Austria). Predilutions designated for photolysis were irradiated for 10 min using the UV reactor described above. […] Next, 5.0 µL of these serial dilutions in assay buffer were transferred into 96-well microplates (OptiPlate-96 Black, PerkinElmer, Waltham, MA, USA). […] Fluorescence (excitation: 355 nm, emission: 460 nm) was measured using a FLUOstar OPTIMA microplate reader (BMG LABTECH GmbH, Ortenberg, Germany). IC50 values were determined by generating normalized dose–response curves using the built-in “log(inhibitor) vs. response (three parameters)” equation provided by GraphPad Prism (GraphPad Prism 9.0, San Diego, CA, USA). All compounds were tested in duplicates; reported mean IC50 values, including standard deviation, were calculated from at least two independent experiments.

[1] = tested on: asexual blood stage and liver stage parasites; set-up: method as in PMID 30664827; conditions: cited from earlier work
HepG2 cancer cell line = tested on: HepG2 cancer cell line; set-up: method as in PMID 30664827; conditions: cited from earlier work

SMILES	IC50 (human recombinant HDAC6; without UV irradiation) [nM]	antiplasmodial activity [1]	antiproliferative activity against HepG2 (HepG2 cancer cell line)	IC50 (human recombinant HDAC6; after UV irradiation (365 nm, 10 min)) [nM]	increase of HDAC6 inhibition upon irradiation with UV light (human recombinant HDAC6; irradiated vs non-irradiated) [fold]
CN(C)c1ccc(C(=O)N(CC(=O)NCc2ccccc2)Cc2ccc(C(=O)NO)cc2)cc1 [I, N-[2-(benzylamino)-2-oxoethyl]-4-(dimethylamino)-N-[4-(hydroxycarbamoyl)-benzyl]-benzamide]	13.1 ± 0.9	potent antiplasmodial activity	submicromolar antiproliferative activity	–	–
COc1cc(CONC(=O)c2ccc(CN(CC(=O)NCc3ccccc3)C(=O)c3ccc(N(C)C)cc3)cc2)c([N+](=O)[O-])cc1OC [pc-I, N-[2-(Benzylamino)-2-oxoethyl]-N-(4-{[(4,5-dimethoxy-2-nitrobenzyl)oxy]carbamoyl}benzyl)-4-(dimethylamino)benzamide]	794 ± 74.7	–	–	21.6 ± 2.8	37
